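Results reflect a 48-hour exposure of cells in 96-well plates to compound at five concentrations. Here, GI50 denotes the concentration required for 50% inhibition of growth. The concentration for full growth arrest is given as TGI.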
Legend:
Assay in all cases: NCI tumour cell line growth inhibition, 48 h
COLO 205 colon = test system: COLO 205 colon
SK-MEL-5 melanoma = test system: SK-MEL-5 melanoma
SNB-75 CNS = test system: SNB-75 CNS
SNB-19 CNS = test system: SNB-19 CNS
DMS 114 small cell lung = test system: DMS 114 small cell lung
SF-268 CNS = test system: SF-268 CNS
SK-MEL-2 melanoma = test system: SK-MEL-2 melanoma
SNB-78 CNS = test system: SNB-78 CNS
ACHN renal = test system: ACHN renal
OVCAR-3 ovarian = test system: OVCAR-3 ovarian
RXF 393 renal = test system: RXF 393 renal
DMS 273 small cell lung = test system: DMS 273 small cell lung
OVCAR-4 ovarian = test system: OVCAR-4 ovarian
HOP-18 NSCLC = test system: HOP-18 NSCLC
SF-295 CNS = test system: SF-295 CNS
EKVX NSCLC = test system: EKVX NSCLC
U251 CNS = test system: U251 CNS
TK-10 renal = test system: TK-10 renal
UACC-62 melanoma = test system: UACC-62 melanoma
A498 renal = test system: A498 renal
K-562 leukemia = test system: K-562 leukemia
OVCAR-8 ovarian = test system: OVCAR-8 ovarian
HOP-62 NSCLC = test system: HOP-62 NSCLC
HCC-2998 colon = test system: HCC-2998 colon
HCT-15 colon = test system: HCT-15 colon
NCI-H23 lung = test system: NCI-H23 lung
DLD-1 colon = test system: DLD-1 colon
MOLT-4 leukemia = test system: MOLT-4 leukemia
MALME-3M melanoma = test system: MALME-3M melanoma
KM20L2 colon = test system: KM20L2 colon
LOX IMVI melanoma = test system: LOX IMVI melanoma
SK-OV-3 ovarian = test system: SK-OV-3 ovarian
M19-MEL melanoma = test system: M19-MEL melanoma
UACC-257 melanoma = test system: UACC-257 melanoma
KM12 colon = test system: KM12 colon
786-0 renal = test system: 786-0 renal
RPMI-8226 leukemia = test system: RPMI-8226 leukemia
CAKI-1 renal = test system: CAKI-1 renal
M14 melanoma = test system: M14 melanoma
NCI-H460 lung = test system: NCI-H460 lung
LXFL 529 NSCLC = test system: LXFL 529 NSCLC
SW-620 colon = test system: SW-620 colon
UO-31 renal = test system: UO-31 renal
SN12C renal = test system: SN12C renal
SF-539 CNS = test system: SF-539 CNS
HL-60(TB) leukemia = test system: HL-60(TB) leukemia
SK-MEL-28 melanoma = test system: SK-MEL-28 melanoma
IGROV1 ovarian = test system: IGROV1 ovarian
CCRF-CEM leukemia = test system: CCRF-CEM leukemia
XF 498 CNS = test system: XF 498 CNS
A549 NSCLC = test system: A549 NSCLC
OVCAR-5 ovarian = test system: OVCAR-5 ovarian
HT29 colon = test system: HT29 colon

`[C-]#[O+].[C-]#[O+].[C-]#[O+].[C-]#[O+].[O-]C(c1ccccc1[PH+]1OC(C(F)(F)F)(C(F)(F)F)c2ccccc21)(C(F)(F)F)C(F)(F)F.[Re]` (stereo unspecified) gave a GI50 (COLO 205 colon) of 2.32 µM, a TGI (COLO 205 colon) of 5.74 µM and a GI50 (SK-MEL-5 melanoma) of 6.33 µM. The TGI (SK-MEL-5 melanoma) was 20.6 µM, the GI50 (SNB-75 CNS) was 4.65 µM and the TGI (SNB-75 CNS) was 15.6 µM. The GI50 (SNB-19 CNS) was 11.5 µM, the TGI (SNB-19 CNS) was 33.5 µM and the GI50 (DMS 114 small cell lung) was 2.78 µM. For the same compound, the TGI (DMS 114 small cell lung) was 8.82 µM, the GI50 (SF-268 CNS) was 6.18 µM and the TGI (SF-268 CNS) was 23.5 µM. It also gave a GI50 (SK-MEL-2 melanoma) of 4.88 µM, a TGI (SK-MEL-2 melanoma) of 18.2 µM and a GI50 (SNB-78 CNS) of 3.7 µM. For the same compound, the TGI (SNB-78 CNS) was 19.5 µM, the GI50 (ACHN renal) was 3.75 µM and the TGI (ACHN renal) was 12.9 µM. It also gave a GI50 (OVCAR-3 ovarian) of 2.77 µM, a TGI (OVCAR-3 ovarian) of 7.58 µM and a GI50 (RXF 393 renal) of 1.9 µM. For the same compound, the TGI (RXF 393 renal) was 4.04 µM, the GI50 (DMS 273 small cell lung) was 2.93 µM and the TGI (DMS 273 small cell lung) was 9.78 µM. It also gave a GI50 (OVCAR-4 ovarian) of 2.88 µM, a TGI (OVCAR-4 ovarian) of 8.53 µM and a GI50 (HOP-18 NSCLC) of 7.89 µM. The TGI (HOP-18 NSCLC) was 21.1 µM, the GI50 (SF-295 CNS) was 4.97 µM and the TGI (SF-295 CNS) was 18.3 µM. For the same compound, the GI50 (EKVX NSCLC) was 7.51 µM, the TGI (EKVX NSCLC) was 25.4 µM and the GI50 (U251 CNS) was 3.05 µM. For the same compound, the TGI (U251 CNS) was 14.1 µM, the GI50 (TK-10 renal) was 7.26 µM and the TGI (TK-10 renal) was 21.7 µM. For the same compound, the GI50 (UACC-62 melanoma) was 2.12 µM, the TGI (UACC-62 melanoma) was 4.92 µM and the GI50 (A498 renal) was 2.5 µM. The TGI (A498 renal) was 8.19 µM, the GI50 (K-562 leukemia) was 2.69 µM and the TGI (K-562 leukemia) was 11.1 µM. The GI50 (OVCAR-8 ovarian) was 3.65 µM, the TGI (OVCAR-8 ovarian) was 15.6 µM and the GI50 (HOP-62 NSCLC) was 7.54 µM. The TGI (HOP-62 NSCLC) was 24 µM, the GI50 (HCC-2998 colon) was 5.11 µM and the TGI (HCC-2998 colon) was 18.3 µM. It also gave a GI50 (HCT-15 colon) of 5.72 µM, a TGI (HCT-15 colon) of 20.6 µM and a GI50 (NCI-H23 lung) of 2.36 µM. It also gave a TGI (NCI-H23 lung) of 5.25 µM, a GI50 (DLD-1 colon) of 5.1 µM and a TGI (DLD-1 colon) of 21.1 µM. The GI50 (MOLT-4 leukemia) was 2.5 µM, the TGI (MOLT-4 leukemia) was 6.39 µM and the GI50 (MALME-3M melanoma) was 2.33 µM. It also gave a TGI (MALME-3M melanoma) of 5.07 µM, a GI50 (KM20L2 colon) of 2.2 µM and a TGI (KM20L2 colon) of 13.7 µM. For the same compound, the GI50 (LOX IMVI melanoma) was 2.59 µM, the TGI (LOX IMVI melanoma) was 6.2 µM and the GI50 (SK-OV-3 ovarian) was 14.7 µM. It also gave a TGI (SK-OV-3 ovarian) of 30.2 µM, a GI50 (M19-MEL melanoma) of 3.59 µM and a TGI (M19-MEL melanoma) of 14.4 µM. It also gave a GI50 (UACC-257 melanoma) of 2.26 µM, a TGI (UACC-257 melanoma) of 4.28 µM and a GI50 (KM12 colon) of 3.9 µM. For the same compound, the TGI (KM12 colon) was 12.5 µM, the GI50 (786-0 renal) was 4.26 µM and the TGI (786-0 renal) was 15.3 µM. The GI50 (RPMI-8226 leukemia) was 2.89 µM, the TGI (RPMI-8226 leukemia) was 12.5 µM and the GI50 (CAKI-1 renal) was 5.45 µM. It also gave a TGI (CAKI-1 renal) of 20.8 µM, a GI50 (M14 melanoma) of 1.99 µM and a TGI (M14 melanoma) of 4.01 µM. It also gave a GI50 (NCI-H460 lung) of 2.92 µM, a TGI (NCI-H460 lung) of 8.97 µM and a GI50 (LXFL 529 NSCLC) of 2.01 µM. It also gave a TGI (LXFL 529 NSCLC) of 4.26 µM, a GI50 (SW-620 colon) of 3.87 µM and a TGI (SW-620 colon) of 13.5 µM. For the same compound, the GI50 (UO-31 renal) was 2.58 µM, the TGI (UO-31 renal) was 7.02 µM and the GI50 (SN12C renal) was 3.63 µM. For the same compound, the TGI (SN12C renal) was 13.4 µM, the GI50 (SF-539 CNS) was 2.85 µM and the TGI (SF-539 CNS) was 8.68 µM. It also gave a GI50 (HL-60(TB) leukemia) of 2.81 µM, a TGI (HL-60(TB) leukemia) of 11.4 µM and a GI50 (SK-MEL-28 melanoma) of 2.56 µM. The TGI (SK-MEL-28 melanoma) was 6.8 µM, the GI50 (IGROV1 ovarian) was 3.46 µM and the TGI (IGROV1 ovarian) was 14.8 µM. The GI50 (CCRF-CEM leukemia) was 2.39 µM, the TGI (CCRF-CEM leukemia) was 5.83 µM and the GI50 (XF 498 CNS) was 2.96 µM. The TGI (XF 498 CNS) was 10.3 µM, the GI50 (A549 NSCLC) was 4.56 µM and the TGI (A549 NSCLC) was 19.2 µM. It also gave a GI50 (OVCAR-5 ovarian) of 5 µM, a TGI (OVCAR-5 ovarian) of 18.6 µM and a GI50 (HT29 colon) of 3.6 µM. The TGI (HT29 colon) was 12.2 µM.
